Read-outs that look alike come from different tables or passages of the source. Values belong to the compound of their own block, whether it stands above or below them.
Key:
[1] = 80° C.; for inhibition of the decarboxylation: a day
Method: The EDTA was prepared as a 10% aqueous solution for the addition.
Samples were taken from the beakers after a day and analyzed for composition by HPLC.

[2] = 80° C.
Method: The glycine was prepared as a 10% aqueous solution for the addition.
Samples were taken from the beakers after 6 days and analyzed for composition by HPLC.

[3] = Inhibition of decarboxylation reaction when organic acid chelating agent was added (HPLC); type: physicochemical; details: 80° C.
[4] = 1% by weight in unheated CNSL, Day 0
[5] = 1% by weight in unheated CNSL, Day 1
[6] = 5% by weight in unheated CNSL, Day 0
[7] = 5% by weight in unheated CNSL, Day 1
[8] = 1% by weight in unheated CNSL, Day 6
[9] = 10% by weight in unheated CNSL, Day 0
[10] = 10% by weight in unheated CNSL, Day 6
[11] = 2% by weight in unheated CNSL, Day 0
[12] = 2% by weight in unheated CNSL, Day 6

Anacardic Acid 15:1 Composition (%) [1, 4]: 35.11%
Anacardic Acid 15:1 concentration [1, 4]: 107.38 ppm
Anacardic Acid 15:2 Composition (%) [1, 4]: 14.05%
Anacardic Acid 15:2 concentration [1, 4]: 42.98 ppm
Anacardic Acid 15:3 Composition (%) [1, 4]: 33.26%
Anacardic Acid 15:3 concentration [1, 4]: 101.71 ppm
Cardanol 15:1 Composition (%) [1, 4]: 7.60%
Cardanol 15:1 concentration [1, 4]: 23.26 ppm
Cardanol 15:2 Composition (%) [1, 4]: 3.09%
Cardanol 15:2 concentration [1, 4]: 9.45 ppm
Cardanol 15:3 Composition (%) [1, 4]: 6.88%
Cardanol 15:3 concentration [1, 4]: 21.05 ppm
Anacardic Acid 15:1 Composition (%) [1, 5]: 27.63%
Anacardic Acid 15:1 concentration [1, 5]: 61.63 ppm
Anacardic Acid 15:2 Composition (%) [1, 5]: 11.56%
Anacardic Acid 15:2 concentration [1, 5]: 25.79 ppm
Anacardic Acid 15:3 Composition (%) [1, 5]: 26.75%
Anacardic Acid 15:3 concentration [1, 5]: 59.67 ppm
Cardanol 15:1 Composition (%) [1, 5]: 15.11%
Cardanol 15:1 concentration [1, 5]: 33.70 ppm
Cardanol 15:2 Composition (%) [1, 5]: 5.60%
Cardanol 15:2 concentration [1, 5]: 12.49 ppm
Cardanol 15:3 Composition (%) [1, 5]: 13.34%
Cardanol 15:3 concentration [1, 5]: 29.75 ppm
inhibition of the decarboxylation ([1]; 1% by weight): moderate inhibition
Anacardic Acid 15:1 Composition (%) [1, 6]: 35.11%
Anacardic Acid 15:1 concentration [1, 6]: 107.38 ppm
Anacardic Acid 15:2 Composition (%) [1, 6]: 14.05%
Anacardic Acid 15:2 concentration [1, 6]: 42.98 ppm
Anacardic Acid 15:3 Composition (%) [1, 6]: 33.26%
Anacardic Acid 15:3 concentration [1, 6]: 101.71 ppm
Cardanol 15:1 Composition (%) [1, 6]: 7.60%
Cardanol 15:1 concentration [1, 6]: 23.26 ppm
Cardanol 15:2 Composition (%) [1, 6]: 3.09%
Cardanol 15:2 concentration [1, 6]: 9.45 ppm
Cardanol 15:3 Composition (%) [1, 6]: 6.88%
Cardanol 15:3 concentration [1, 6]: 21.05 ppm
Anacardic Acid 15:1 Composition (%) [1, 7]: 29.16%
Anacardic Acid 15:1 concentration [1, 7]: 101.34 ppm
Anacardic Acid 15:2 Composition (%) [1, 7]: 11.39%
Anacardic Acid 15:2 concentration [1, 7]: 39.59 ppm
Anacardic Acid 15:3 Composition (%) [1, 7]: 27.51%
Anacardic Acid 15:3 concentration [1, 7]: 95.61 ppm
Cardanol 15:1 Composition (%) [1, 7]: 14.21%
Cardanol 15:1 concentration [1, 7]: 49.37 ppm
Cardanol 15:2 Composition (%) [1, 7]: 5.34%
Cardanol 15:2 concentration [1, 7]: 18.56 ppm
Cardanol 15:3 Composition (%) [1, 7]: 12.39%
Cardanol 15:3 concentration [1, 7]: 43.07 ppm
inhibition of the decarboxylation ([1]; 5% by weight): significant inhibition
Structure (SMILES): O=C(O)CN(CCN(CC(=O)O)CC(=O)O)CC(=O)O [EDTA, ethylenediamine tetraacetic acid]

Anacardic Acid 15:1 Composition (%) [2, 4]: 40.00%
Anacardic Acid 15:1 concentration [2, 4]: 346.59 ppm
Anacardic Acid 15:2 Composition (%) [2, 4]: 13.66%
Anacardic Acid 15:2 concentration [2, 4]: 118.36 ppm
Anacardic Acid 15:3 Composition (%) [2, 4]: 32.88%
Anacardic Acid 15:3 concentration [2, 4]: 284.89 ppm
Cardanol 15:1 Composition (%) [2, 4]: 5.65%
Cardanol 15:1 concentration [2, 4]: 48.94 ppm
Cardanol 15:2 Composition (%) [2, 4]: 2.42%
Cardanol 15:2 concentration [2, 4]: 20.93 ppm
Cardanol 15:3 Composition (%) [2, 4]: 5.40%
Cardanol 15:3 concentration [2, 4]: 46.76 ppm
Anacardic Acid 15:1 Composition (%) [2, 8]: 23.47%
Anacardic Acid 15:1 concentration [2, 8]: 78.82 ppm
Anacardic Acid 15:2 Composition (%) [2, 8]: 8.29%
Anacardic Acid 15:2 concentration [2, 8]: 27.85 ppm
Anacardic Acid 15:3 Composition (%) [2, 8]: 18.80%
Anacardic Acid 15:3 concentration [2, 8]: 63.14 ppm
Cardanol 15:1 Composition (%) [2, 8]: 21.95%
Cardanol 15:1 concentration [2, 8]: 73.71 ppm
Cardanol 15:2 Composition (%) [2, 8]: 7.93%
Cardanol 15:2 concentration [2, 8]: 26.64 ppm
Cardanol 15:3 Composition (%) [2, 8]: 19.54%
Cardanol 15:3 concentration [2, 8]: 65.62 ppm
inhibition of the decarboxylation ([2]; 1 and 10% by weight, 6 days): subtle inhibition
Anacardic Acid 15:1 Composition (%) [2, 9]: 40.00%
Anacardic Acid 15:1 concentration [2, 9]: 346.59 ppm
Anacardic Acid 15:2 Composition (%) [2, 9]: 13.66%
Anacardic Acid 15:2 concentration [2, 9]: 118.36 ppm
Anacardic Acid 15:3 Composition (%) [2, 9]: 32.88%
Anacardic Acid 15:3 concentration [2, 9]: 284.89 ppm
Cardanol 15:1 Composition (%) [2, 9]: 5.65%
Cardanol 15:1 concentration [2, 9]: 48.94 ppm
Cardanol 15:2 Composition (%) [2, 9]: 2.42%
Cardanol 15:2 concentration [2, 9]: 20.93 ppm
Cardanol 15:3 Composition (%) [2, 9]: 5.40%
Cardanol 15:3 concentration [2, 9]: 46.76 ppm
Anacardic Acid 15:1 Composition (%) [2, 10]: 28.28%
Anacardic Acid 15:1 concentration [2, 10]: 94.58 ppm
Anacardic Acid 15:2 Composition (%) [2, 10]: 9.99%
Anacardic Acid 15:2 concentration [2, 10]: 33.42 ppm
Anacardic Acid 15:3 Composition (%) [2, 10]: 22.66%
Anacardic Acid 15:3 concentration [2, 10]: 75.77 ppm
Cardanol 15:1 Composition (%) [2, 10]: 17.35%
Cardanol 15:1 concentration [2, 10]: 58.02 ppm
Cardanol 15:2 Composition (%) [2, 10]: 6.27%
Cardanol 15:2 concentration [2, 10]: 20.97 ppm
Cardanol 15:3 Composition (%) [2, 10]: 15.45%
Cardanol 15:3 concentration [2, 10]: 51.65 ppm
Structure (SMILES): NCC(=O)O [Glycine, glycine]

Anacardic Acid 15:1 Composition (%) [3, 11]: 39.93%
Anacardic Acid 15:1 concentration [3, 11]: 321.20 ppm
Anacardic Acid 15:2 Composition (%) [3, 11]: 14.22%
Anacardic Acid 15:2 concentration [3, 11]: 114.37 ppm
Anacardic Acid 15:3 Composition (%) [3, 11]: 33.03%
Anacardic Acid 15:3 concentration [3, 11]: 265.67 ppm
Cardanol 15:1 Composition (%) [3, 11]: 5.30%
Cardanol 15:1 concentration [3, 11]: 42.62 ppm
Cardanol 15:2 Composition (%) [3, 11]: 2.27%
Cardanol 15:2 concentration [3, 11]: 18.28 ppm
Cardanol 15:3 Composition (%) [3, 11]: 5.26%
Cardanol 15:3 concentration [3, 11]: 42.29 ppm
Anacardic Acid 15:1 Composition (%) [3, 12]: 30.38%
Anacardic Acid 15:1 concentration [3, 12]: 258.72 ppm
Anacardic Acid 15:2 Composition (%) [3, 12]: 10.45%
Anacardic Acid 15:2 concentration [3, 12]: 88.98 ppm
Anacardic Acid 15:3 Composition (%) [3, 12]: 24.29%
Anacardic Acid 15:3 concentration [3, 12]: 206.87 ppm
Cardanol 15:1 Composition (%) [3, 12]: 15.35%
Cardanol 15:1 concentration [3, 12]: 130.72 ppm
Cardanol 15:2 Composition (%) [3, 12]: 5.81%
Cardanol 15:2 concentration [3, 12]: 49.51 ppm
Cardanol 15:3 Composition (%) [3, 12]: 13.71%
Cardanol 15:3 concentration [3, 12]: 116.77 ppm
Anacardic Acid 15:1 Composition (%) [3, 9]: 39.28%
Anacardic Acid 15:1 concentration [3, 9]: 270.21 ppm
Anacardic Acid 15:2 Composition (%) [3, 9]: 14.28%
Anacardic Acid 15:2 concentration [3, 9]: 98.21 ppm
Anacardic Acid 15:3 Composition (%) [3, 9]: 33.24%
Anacardic Acid 15:3 concentration [3, 9]: 228.68 ppm
Cardanol 15:1 Composition (%) [3, 9]: 5.47%
Cardanol 15:1 concentration [3, 9]: 37.65 ppm
Cardanol 15:2 Composition (%) [3, 9]: 2.39%
Cardanol 15:2 concentration [3, 9]: 16.44 ppm
Cardanol 15:3 Composition (%) [3, 9]: 5.33%
Cardanol 15:3 concentration [3, 9]: 36.70 ppm
Anacardic Acid 15:1 Composition (%) [3, 10]: 37.43%
Anacardic Acid 15:1 concentration [3, 10]: 229.25 ppm
Anacardic Acid 15:2 Composition (%) [3, 10]: 13.73%
Anacardic Acid 15:2 concentration [3, 10]: 84.08 ppm
Anacardic Acid 15:3 Composition (%) [3, 10]: 31.28%
Anacardic Acid 15:3 concentration [3, 10]: 191.59 ppm
Cardanol 15:1 Composition (%) [3, 10]: 7.28%
Cardanol 15:1 concentration [3, 10]: 44.57 ppm
Cardanol 15:2 Composition (%) [3, 10]: 3.41%
Cardanol 15:2 concentration [3, 10]: 20.90 ppm
Cardanol 15:3 Composition (%) [3, 10]: 6.87%
Cardanol 15:3 concentration [3, 10]: 42.08 ppm
Structure (SMILES): O=C(O)CC(O)C(=O)O (stereo not drawn) [Malic Acid, malic acid]

Anacardic Acid 15:1 Composition (%) [3, 11]: 42.00%
Anacardic Acid 15:1 concentration [3, 11]: 351.16 ppm
Anacardic Acid 15:2 Composition (%) [3, 11]: 13.27%
Anacardic Acid 15:2 concentration [3, 11]: 110.99 ppm
Anacardic Acid 15:3 Composition (%) [3, 11]: 31.29%
Anacardic Acid 15:3 concentration [3, 11]: 261.63 ppm
Cardanol 15:1 Composition (%) [3, 11]: 5.69%
Cardanol 15:1 concentration [3, 11]: 47.57 ppm
Cardanol 15:2 Composition (%) [3, 11]: 2.50%
Cardanol 15:2 concentration [3, 11]: 20.90 ppm
Cardanol 15:3 Composition (%) [3, 11]: 5.25%
Cardanol 15:3 concentration [3, 11]: 43.86 ppm
Anacardic Acid 15:1 Composition (%) [3, 12]: 30.33%
Anacardic Acid 15:1 concentration [3, 12]: 272.03 ppm
Anacardic Acid 15:2 Composition (%) [3, 12]: 10.57%
Anacardic Acid 15:2 concentration [3, 12]: 94.78 ppm
Anacardic Acid 15:3 Composition (%) [3, 12]: 24.25%
Anacardic Acid 15:3 concentration [3, 12]: 217.48 ppm
Cardanol 15:1 Composition (%) [3, 12]: 15.59%
Cardanol 15:1 concentration [3, 12]: 139.84 ppm
Cardanol 15:2 Composition (%) [3, 12]: 5.66%
Cardanol 15:2 concentration [3, 12]: 50.74 ppm
Cardanol 15:3 Composition (%) [3, 12]: 13.62%
Cardanol 15:3 concentration [3, 12]: 122.16 ppm
Anacardic Acid 15:1 Composition (%) [3, 9]: 39.70%
Anacardic Acid 15:1 concentration [3, 9]: 250.76 ppm
Anacardic Acid 15:2 Composition (%) [3, 9]: 14.24%
Anacardic Acid 15:2 concentration [3, 9]: 89.95 ppm
Anacardic Acid 15:3 Composition (%) [3, 9]: 32.59%
Anacardic Acid 15:3 concentration [3, 9]: 205.85 ppm
Cardanol 15:1 Composition (%) [3, 9]: 5.45%
Cardanol 15:1 concentration [3, 9]: 34.40 ppm
Cardanol 15:2 Composition (%) [3, 9]: 2.70%
Cardanol 15:2 concentration [3, 9]: 17.07 ppm
Cardanol 15:3 Composition (%) [3, 9]: 5.31%
Cardanol 15:3 concentration [3, 9]: 33.53 ppm
Anacardic Acid 15:1 Composition (%) [3, 10]: 39.12%
Anacardic Acid 15:1 concentration [3, 10]: 267.36 ppm
Anacardic Acid 15:2 Composition (%) [3, 10]: 13.52%
Anacardic Acid 15:2 concentration [3, 10]: 92.36 ppm
Anacardic Acid 15:3 Composition (%) [3, 10]: 31.14%
Anacardic Acid 15:3 concentration [3, 10]: 212.78 ppm
Cardanol 15:1 Composition (%) [3, 10]: 6.81%
Cardanol 15:1 concentration [3, 10]: 46.56 ppm
Cardanol 15:2 Composition (%) [3, 10]: 3.24%
Cardanol 15:2 concentration [3, 10]: 22.13 ppm
Cardanol 15:3 Composition (%) [3, 10]: 6.17%
Cardanol 15:3 concentration [3, 10]: 42.19 ppm
Structure (SMILES): O=C(O)C(O)C(O)C(=O)O (stereo not drawn) [Tartaric Acid, tartaric acid]
